From US9422240B2, “Partially saturated nitrogen-containing heterocyclic compound” (TAISHO PHARMACEUTICAL CO., LTD, priority 2012, dated 2016)
Counter-ions that a name gives are not always drawn.

These compounds were tested against human PHD2 (Homo sapiens (Human), UniProt Q9GZT9) (assay: Test 2: human PHD2 inhibitory activity, fluorescence polarization assay of HIF-1α peptide proline hydroxylation). Details: read-out: Percent inhibition (% at 1 μM).
Type: biochemical
Protocol: (1) Expression and Preparation of Human PHD2
A registered sequence of human PHD2 (NM_022051) was introduced into pcDNA3.1/Hygro(+) vector (Invitrogen), and the sequence was verified. […] The suspension of disrupted cells was centrifuged at 4° C. and 100,000×g for 30 minutes and the supernatant was recovered as a cell lysate.
(2) Measurement of Human PHD2 Inhibitory Activity
The activity of human PHD2 enzyme was measured with a substrate which is a 19-residue partial peptide based on the sequence of HIF-1α; specifically, the hydroxylation of a proline residue in the peptide was measured by FP (Fluorescence Polarization).
A test compound and the substrate solution were preliminarily added onto 384-well plates and reaction was initiated by adding a human PHD2 enzyme solution (40 ng/well). After 20-min incubation at 30° C., an EDTA-containing quench solution was added and the amount of the proline residues hydroxylated via binding to an added HIF—OH antibody solution was quantified by fluorescence polarization.
The fluorescence polarization of each well was measured and the human PHD2 inhibitory activity of each test compound was calculated on the basis of the values for the test compound-free group.

Sequence of human PHD2 (Q9GZT9 whole entry): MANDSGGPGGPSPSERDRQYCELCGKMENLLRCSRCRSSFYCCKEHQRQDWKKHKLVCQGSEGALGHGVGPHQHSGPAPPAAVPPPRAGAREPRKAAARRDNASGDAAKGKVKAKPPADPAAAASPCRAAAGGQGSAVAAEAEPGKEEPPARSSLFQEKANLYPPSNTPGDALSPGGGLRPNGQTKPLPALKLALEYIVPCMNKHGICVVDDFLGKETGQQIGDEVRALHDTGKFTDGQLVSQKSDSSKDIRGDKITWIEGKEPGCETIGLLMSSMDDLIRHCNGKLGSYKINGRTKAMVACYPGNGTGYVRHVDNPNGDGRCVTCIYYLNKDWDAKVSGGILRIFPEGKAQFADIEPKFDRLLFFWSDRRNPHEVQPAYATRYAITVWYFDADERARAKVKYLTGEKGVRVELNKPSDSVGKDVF

Row | SMILES | inhibition at 1 µM [%]
1 | O=C(O)CNC(=O)C1=C(O)CCN(Cc2ccc(C3=CCC(F)(F)CC3)cc2)C1=O [Ex. 1-467, N-({1-[4-(4,4-difluoro-1-cyclohexen-1-yl)benzyl]-4-hydroxy-2-oxo-1,2,5,6-tetrahydro-3-pyridinyl}carbonyl)glycine sodium salt] | 95
2 | Cc1cc(CN2CCC(O)=C(C(=O)NCC(=O)O)C2=O)ccc1OCC1CC1 [Ex. 1-468, N-({1-[4-(Cyclopropylmethoxy)-3-methylbenzyl]-4-hydroxy-2-oxo-1,2,5,6-tetrahydro-3-pyridinyl}carbonyl)glycine sodium salt] | 85
3 | Cc1ccc(-c2ccc(CN3CCC(O)=C(C(=O)NCC(=O)O)C3=O)cc2)cn1 [Ex. 2-4, N-({4-Hydroxy-1-[4-(6-methyl-3-pyridinyl)benzyl]-2-oxo-1,2,5,6-tetrahydro-3-pyridinyl}carbonyl)glycine sodium salt] | 88
4 | Cc1ccc(-c2ccc(CN3CCC(O)=C(C(=O)NCC(=O)O)C3=O)cc2)nc1 [Ex. 2-5, N-({4-Hydroxy-1-[4-(5-methyl-2-pyridinyl)benzyl]-2-oxo-1,2,5,6-tetrahydro-3-pyridinyl}carbonyl)glycine sodium salt] | 97
5 | C[C@H]1CC(O)=C(C(=O)NCC(=O)O)C(=O)N1Cc1ccc(OCC2CC2)cc1 [Ex. 6-2, N-({(6S)-1-[4-(Cyclopropylmethoxy)benzyl]-4-hydroxy-6-methyl-2-oxo-1,2,5,6-tetrahydro-3-pyridinyl}carbonyl)glycine sodium salt] | 77

Same assay, conditions: test compound's concentration 1 μM; Test 2, fluorescence polarization assay; read-out: Percent inhibition (% at 1 μM)

Row | SMILES | inhibition at 1 µM [%]
6 | O=C(O)CNC(=O)C1=C(O)CCN(Cc2ccc(C3CCCCC3)c(F)c2)C1=O [Ex. 1-453] | 94
7 | O=C(O)CNC(=O)C1=C(O)CCN(C[C@H]2C[C@H](Oc3ccc(Cl)cc3)C2)C1=O [Ex. 1-454] | 95
8 | O=C(O)CNC(=O)C1=C(O)CCN(C[C@H]2C[C@@H](Oc3ccc(Cl)cc3)C2)C1=O [Ex. 1-456] | 98
9 | O=C(O)CNC(=O)C1=C(O)CCN(C[C@H]2C[C@H](OCc3ccc(Cl)cc3)C2)C1=O [Ex. 1-457] | 94
10 | Cc1ccc(O[C@H]2C[C@H](CN3CCC(O)=C(C(=O)NCC(=O)O)C3=O)C2)cc1 [Ex. 1-458] | 89
11 | O=C(O)CNC(=O)C1=C(O)CCN(C[C@H]2C[C@H](Oc3ccc(C(F)(F)F)cc3)C2)C1=O [Ex. 1-459] | 96
12 | O=C(O)CNC(=O)C1=C(O)CCN(C[C@H]2C[C@H](Oc3cccc(Cl)c3)C2)C1=O [Ex. 1-460] | 92
13 | O=C(O)CNC(=O)C1=C(O)CCN(Cc2ccc(OCn3nnc4ccccc43)cc2)C1=O [Ex. 1-461] | 95
14 | Cc1cc(C)n(COc2ccc(CN3CCC(O)=C(C(=O)NCC(=O)O)C3=O)cc2)n1 [Ex. 1-462] | 87
15 | Cn1nc2ccccc2c1COc1ccc(CN2CCC(O)=C(C(=O)NCC(=O)O)C2=O)cc1 [Ex. 1-463] | 99
16 | O=C(O)CNC(=O)C1=C(O)CCN(C[C@H]2CC[C@H](OCc3ccc(Cl)cn3)CC2)C1=O [Ex. 1-464] | 87
17 | O=C(O)CNC(=O)C1=C(O)CC(CO)(CCl)N(Cc2ccc(-c3ccccc3)cc2)C1=O (stereo not drawn) [Ex. 1-465, N-{[1-(4-Biphenylylmethyl)-6-(chloromethyl)-4-hydroxy-6-(hydroxymethyl)-2-oxo-1,2,5,6-tetrahydro-3-pyridinyl]carbonyl}glycine] | 80
18 | O=C(O)CNC(=O)C1=C(O)CCN(Cc2ccc(O)c(Cl)c2)C1=O [Ex. 1-466, N-{[1-(3-Chloro-4-hydroxybenzyl)-4-hydroxy-2-oxo-1,2,5,6-tetrahydro-3-pyridinyl]carbonyl}glycine disodium] | 77
19 | COc1cnccc1-c1ccc(CN2CCC(O)=C(C(=O)NCC(=O)O)C2=O)cc1 [Ex. 2-2, N-({4-Hydroxy-1-[4-(3-methoxy-4-pyridinyl)benzyl]-2-oxo-1,2,5,6-tetrahydro-3-pyridinyl}carbonyl)glycine sodium salt] | 98
20 | COc1ncccc1-c1ccc(CN2CCC(O)=C(C(=O)NCC(=O)O)C2=O)cc1 [Ex. 2-3, N-({4-Hydroxy-1-[4-(2-methoxy-3-pyridinyl)benzyl]-2-oxo-1,2,5,6-tetrahydro-3-pyridinyl}carbonyl)glycine sodium salt] | 92
21 | CS(=O)(=O)c1ccc(-c2ccc(CN3CCC(O)=C(C(=O)NCC(=O)O)C3=O)cc2)cc1 [Ex. 2-31] | 93
22 | CN(C)C(=O)c1ccc(-c2ccc(CN3CCC(O)=C(C(=O)NCC(=O)O)C3=O)cc2)cc1 [Ex. 2-32] | 85
23 | O=C(O)CNC(=O)C1=C(O)C2(CCCCC2)N(Cc2ccc(-c3ccc(Cl)cc3)cc2)C1=O [Ex. 2-33] | 91
24 | O=C(O)CNC(=O)C1=C(O)CCN(Cc2ccc(-c3ccc(C(=O)O)cc3)cc2)C1=O [Ex. 2-34] | 97
25 | COc1ccc(-c2ccc(CN3CCC(O)=C(C(=O)NCC(=O)O)C3=O)cn2)cc1 [Ex. 2-35] | 96
26 | O=C(O)CNC(=O)C1=C(O)CCN(Cc2ccc(-c3ccc(OC(F)(F)F)cc3)nc2)C1=O [Ex. 2-36] | 95
27 | O=C(O)CNC(=O)C1=C(O)CCN(Cc2ccc(-c3ccc(F)cc3)nc2)C1=O [Ex. 2-37] | 91
28 | COc1ccc(-c2ccc(CN3CCC(O)=C(C(=O)NCC(=O)O)C3=O)nc2)cc1 [Ex. 2-38] | 92
29 | O=C(O)CNC(=O)C1=C(O)CCN(Cc2ccc(-c3ccc(OC(F)(F)F)cc3)cn2)C1=O [Ex. 2-39] | 93
30 | O=C(O)CNC(=O)C1=C(O)CCN(Cc2ccc(-c3ccc(C(F)(F)F)cc3)cn2)C1=O [Ex. 2-40] | 96
31 | COc1cc(-c2ccc(CN3CCC(O)=C(C(=O)NCC(=O)O)C3=O)cc2)ccn1 [Ex. 2-41] | 93

Row | SMILES | inhibition at 1 µM [%]
32 | COc1ncc(-c2ccc(CN3CCC(O)=C(C(=O)NCC(=O)O)C3=O)cc2)s1 [Ex. 2-42] | 96
33 | O=C(O)CNC(=O)C1=C(O)CCN(Cc2ccc(-c3cnc(O)s3)cc2)C1=O [Ex. 2-43] | 95
34 | Cc1ccc(-c2ccc(CN3CCC(O)=C(C(=O)NCC(=O)O)C3=O)nc2)cc1 [Ex. 2-44] | 96
35 | Cc1ccc(-c2ccc(CN3CCC(O)=C(C(=O)NCC(=O)O)C3=O)cn2)cc1 [Ex. 2-45] | 95
36 | O=C(O)CNC(=O)C1=C(O)CCN(Cc2ccc(-c3ccc(Cl)cc3)nc2)C1=O [Ex. 2-46] | 93
37 | Cc1ccc(-c2ccc(CN3CCC(O)=C(C(=O)NCC(=O)O)C3=O)cc2)s1 [Ex. 2-47] | 100
38 | O=C(O)CNC(=O)C1=C(O)CCN(Cc2ccc(-c3ccc(C4CC4)cc3)nc2)C1=O [Ex. 2-48] | 103
39 | O=C(O)CNC(=O)C1=C(O)CCN(Cc2ccc(-c3ccc(C4CC4)cc3)cc2)C1=O [Ex. 2-49] | 93
40 | O=C(O)CNC(=O)C1=C(O)CCN(Cc2ccc(-c3ccc(C4CC4)cc3)cn2)C1=O [Ex. 2-50] | 99
41 | COc1cccc(-c2ccc(CN3CCC(O)=C(C(=O)NCC(=O)O)C3=O)cn2)c1 [Ex. 2-51] | 97
42 | COc1ccccc1-c1ccc(CN2CCC(O)=C(C(=O)NCC(=O)O)C2=O)cn1 [Ex. 2-52] | 95
43 | COc1cncc(-c2ccc(CN3CCC(O)=C(C(=O)NCC(=O)O)C3=O)cc2)c1 [Ex. 2-53] | 97
44 | COc1ccncc1-c1ccc(CN2CCC(O)=C(C(=O)NCC(=O)O)C2=O)cc1 [Ex. 2-54] | 87
45 | NS(=O)(=O)c1ccc(-c2ccc(CN3CCC(O)=C(C(=O)NCC(=O)O)C3=O)cc2)cc1 [Ex. 2-55, N-({4-Hydroxy-2-oxo-1-[(4′-sulfamoyl-4-biphenylyl)methyl]-1,2,5,6-tetrahydro-3-pyridinyl}carbonyl)glycine] | 97
46 | CS(=O)(=O)c1ccc(-c2ccc(CN3CCC(O)=C(C(=O)NCC(=O)O)C3=O)cc2)cn1 [Ex. 2-56] | 92
47 | O=C(O)CNC(=O)C1=C(O)CCN(Cc2ccc(-c3ccc(S(=O)(=O)NCCO)cc3)cc2)C1=O [Ex. 2-57] | 94
48 | O=C(O)CNC(=O)C1=C(O)CCN(Cc2ccc(-c3ccc(C(=O)O)nc3)cc2)C1=O [Ex. 2-58] | 92
49 | Nc1ccc(-c2ccc(CN3CCC(O)=C(C(=O)NCC(=O)O)C3=O)cc2)cn1 [Ex. 2-59] | 97
50 | O=C(O)CNC(=O)C1=C(O)CCN(Cc2ccc(-c3ccc(O)nc3)cc2)C1=O [Ex. 2-60] | 96
51 | Nc1ncc(-c2ccc(CN3CCC(O)=C(C(=O)NCC(=O)O)C3=O)cc2)cn1 [Ex. 2-61] | 92
52 | O=C(O)CNC(=O)C1=C(O)CCN(Cc2ccc(O)cc2)C1=O [Ex. 4-3, N-{[4-Hydroxy-1-(4-hydroxybenzyl)-2-oxo-1,2,5,6-tetrahydro-3-pyridinyl]carbonyl}glycine] | 72
53 | O=C(O)CNC(=O)C1=C(O)C2(CCCC2)N(Cc2ccc(-c3ccccc3)cc2)C1=O [Ex. 6-1, N-{[1-(4-Biphenylylmethyl)-4-hydroxy-2-oxo-1-azaspiro[4.4]non-3-en-3-yl]carbonyl}glycine] | 91
54 | O=C(O)CNC(=O)C1=C(O)C2(CCC2)N(Cc2ccc(-c3ccccc3)cc2)C1=O [Ex. 6-3] | 96
55 | CC1C(O)=C(C(=O)NCCC(=O)O)C(=O)N1Cc1ccc(-c2ccccc2)cc1 (stereo not drawn) [Ex. 6-4] | 10
56 | CC1C(O)=C(C(=O)NCC(=O)O)C(=O)N1Cc1ccc(Oc2ccc(C(F)(F)F)cn2)cc1 (stereo not drawn) [Ex. 6-5] | 97
57 | CC1(C)C(O)=C(C(=O)NCC(=O)O)C(=O)N1Cc1ccc(Oc2ccc(C(F)(F)F)cn2)cc1 [Ex. 6-6] | 87
